For the test, the system named is Chlamydia trachomatis. Format: in vivo, mice. The settings on record: subcutaneous immunization with UV-inactivated Chlamydia, alone or co-administered with the named adjuvant.

These results are taken from patent US10485861B2 (priority 2013, dated 2019).

Take `CC(C)Cn1cnc2c(N)nc3ccccc3c21` [IMQ, imiquimod]: the “Protection against genital Chlamydia challenge (Chlamydia load)” value is recorded as “did not provide protection or tolerance”.
